The values below come from patent US20250282723A1, “AMYLOID TARGETING AGENTS AND METHODS OF USING THE SAME” (The Regents of the University of California, priority 2021, published 2025).

For orientation: Kd means the constant that tells how readily two partners part at equilibrium.

Where “and” joins values, the source holds several entries; their conditions need not be identical. Equal entries are not always repeated.

Data set [1] is described as follows: Quantum yield measurements. Format: physicochemical. Particulars: 5% DMSO/H2O, reference standard Coumarin 30. The procedure: Quantum Yield Measurements. To determine the quantum yield (QY) of compounds ARCAM, 1-5, a procedure that was similar to a previously reported protocol for estimating the QY for Thioflavin T^24 was used. Briefly, the absorbance spectrum of each probe (in 5% Dimethyl Sulfoxide (DMSO)/water (H2O)), in addition to the absorbance spectrum for the reference standard (Coumarin 30, QY=0.67)^27 was measured. The wavelength at which the two normalized absorbance curves intersected was used as the excitation wavelength. A serial dilution of each probe and the standard was made with absorbance values at the excitation wavelength in the range of 0 to 0.1 absorbance units. At each concentration, the emission spectra for each probe and the standard were measured. Technical triplicates of these experiments were performed for all probes, and the averages were recorded. From these emission spectra, the area under the curve was calculated and plotted against the absorbance at each concentration (FIGS. 3-7). The data were fitted to Equation 1 to obtain estimates for QY: […]
where QY represents the quantum yield, A represents the absorbance, E represents the integrated fluorescence emission, η represents the refractive index of the solvent^28,29, and the ‘p’ and ‘r’ subscripts signify the probe or the reference compound, respectively.
Quantum Yield ((D) for each probe was measured as described previously.^31 Briefly, we measured the absorbance spectrum of each probe in 5% DMSO/H2O, as well as the absorbance spectrum for the reference standard (Coumarin 30, =0.67 in Acetonitrile). Both normalized absorbance curves were plotted, and the wavelength of intersection was used as the excitation wavelength. A serial dilution was made for each probe and the standard with absorbance values at the excitation wavelength varying between of 0 to 0.1 absorbance units. At each concentration, the emission spectra for each probe and the standard were measured. Each experiment was repeated in technical triplicates for all probes, and the averages were recorded. The integrated fluorescence emission was calculated and plotted against the absorbance at each concentration. The data were fitted to Equation Si to obtain estimates for Φ: […]
where Φ represents the quantum yield, A represents the absorbance, E represents the integrated fluorescence emission, η represents the refractive index of the solvent, and the ‘p’ and ‘r’ subscripts signify the probe or the reference compound, respectively.

For data set [2], the target named is T1, aggregated Aβ (1-42) peptides (Homo sapiens, UniProt P05067).
T1 construct: Synthetic Aβ (1-42) peptide was purchased from Biopeptide, Co LLC; purchased Biopeptide, Co LLC (San Diego, California); host or cells: chemical synthesis
T1 sequence (P05067 672-713): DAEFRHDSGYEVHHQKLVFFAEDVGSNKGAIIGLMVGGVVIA
Briefly: Fluorescence excitation/emission and fluorescence enhancement of probes bound versus unbound to aggregated Aβ (1-42) peptides. The following applies: probe 4 μM; for Em (λmax) (with Aβ) / Ex (λmax) (with Aβ): aggregated Aβ (1-42) 5 μM; for Fold Increase with Aβ: fluorescence intensity with aggregated Aβ (1-42) 5 μM vs probe alone, at λmax of the amyloid-bound state. It is filed as binding. How it is done:
(§1) Preparation of aggregated Aβ (1-42) peptides. Synthetic Aβ (1-42) peptide was purchased from Biopeptide, Co LLC (San Diego, California). Aggregated Aβ (1-42) was prepared as previously described.^26 Briefly, Aβ (1-42) was dissolved in 100% 1,1,1,3,3,3,-hexafluoro-2-propanol (HFIP) to a concentration of 1 mM and put on a shaker at room temperature (RT) for 24 hours. The solution was then diluted in cold nanopure water (2:1 H2O: HFIP). Aliquoted fractions were lyophilized for 3 days before dissolving in nanopure water to a concentration of 100 μM. Aggregated Aβ solutions were incubated and shaken at 37° C. for 3 days before use. The formation of soluble aggregates (67% fibrils as a mixture with 13% oligomers and 20% monomer) was confirmed using a standard thioflavin T (ThT) assay and by Sodium Dodecyl Sulphate-Polyacrylamide Gel Electrophoresis (SDS-PAGE) gel analysis (FIG. 11 and FIG. 12).
(§2) Estimation of fluorescence enhancement of probes when bound versus unbound to aggregated Aβ (1-42) peptides. Aggregated Aβ (1-42) at a final concentration of 5 μM (based on the molecular weight of monomer) was mixed with each fluorescent probe at a final concentration of 4 μM in 5% DMSO in nanopure water. The solution (80 μL) was transferred to a black opaque 96 well plate and the fluorescence was read using a microplate reader. For all probes, the relative fluorescence enhancement of the bound versus unbound state was estimated by comparing the intensity at λmax of the amyloid-bound state.
(§3) Synthetic Aβ (1-42) peptide was purchased from Biopeptide, Co LLC (San Diego, California). Aggregated Aβ (1-42) was prepared as previously described.^32 Briefly, monomeric Aβ (1-42) was dissolved in 100% 1,1,1,3,3,3,-hexafluoro-2-propanol (HFIP) to a final concentration of 1 mM and dissolved on a shaker at RT for 24 hours. This solution was then diluted with cold nanopure water (2:1 H2O:HFIP) and aliquoted into fractions. These samples were then lyophilized for 3 days before dissolving in nanopure water to a final concentration of 100 μM. AD solutions were aggregated by incubating and shaking at 37° C. for 3 days before use. The formation of soluble aggregates was confirmed using a standard Thioflavin T (ThT) assay and by SDS-PAGE gel analysis.^1
(§4) Aggregated αS or Aβ(1-42) at a final concentration of 5 μM (based on the molecular weight of monomer) was mixed with each fluorescent probe at a final concentration of 4 μM in 5% DMSO in nanopure water. The solution (80 μL total volume) was transferred to a black opaque 96 well plate and the fluorescence excitation and emission were read using a microplate reader. For emission fluorescence enhancement, the relative fluorescence enhancement of the bound versus unbound state was estimated by comparing the fluorescence intensity at λmax of the amyloid-bound state.

Data set [3] concerns the target T2, aggregated αS (Homo sapiens, UniProt P37840).
T2 construct: made in house; host or cells: E. coli BL21 (plasmid pET5α aSynWT)
Briefly: Estimation of binding constant (Kd) to aggregated αS. The following applies: probes of FIG. 14; aggregated αS 5 μM, increasing concentration of probe, 5% DMSO in nanopure water. How it is done: (§5) Expression and purification of recombinant α-synuclein was followed as reported previously.^32 Briefly, α-synuclein was purified from BL21 E. coli as described: A starter culture of transformed bacteria (pET5α aSynWT) (LB broth with ampicillin [final concentration: 100 μg/mL]) was incubated overnight. Following incubation, 25 mL of the started culture was added to a 500 mL mixture of LB broth and ampicillin. Protein expression was induced by addition of IPTG [0.119 g/500 mL] when an OD600 between 0.5-0.8 was achieved. After 4 h, flasks were centrifuged (5,000×g for 20 min) and the supernatant was removed. The pellets were then re-suspended in 20 mM Tris, 25 mM NaCl, 1 mM EDTA, pH 8.0, transferred into a flask, boiled for 1-2 minutes in a microwave, and boiled in a water bath (90° C.) for 30 minutes. Samples were then centrifuged (18,000×g for 30 min) and the supernatant was collected and filtered through a 0.2 μm filter. α-synuclein protein was further purified using 2×5 ml HiTrapQ HP anion exchange columns (GE, #17-1153-01) followed by Size Exclusion Column (Superdex 200, #28-9893-35). Pure α-synuclein determined by Coomassie and western blot were lyophilized and stored at −80° C. until use.
(§6) Aggregation of purified α-synuclein was followed as reported previously.^33 The lyophilized powder was dissolved to a final concentration of 100 μM in sodium phosphate buffer (50 mM, pH 7.4) with 0.1 mM EDTA and 0.02% sodium azide (w/v) and was aggregated at 37° C. with shaking at 500 rpm for 3 weeks. Fibrillization was confirmed by SDS-PAGE gel and standard ThT assay.
(§7) Aggregated Aβ(1-42) or αS at a final concentration of 5 μM (based on the molecular weight of the monomer) was mixed with an increasing concentration of each probe in 5% DMSO in nanopure water. Kd's were calculated as previously described.^34 The measurements for each probe were repeated in technical triplicates and the averages are shown with standard deviations. Kd's for probes 1-3 with aggregated Aβ(1-42) have been reported previously.^31

For data set [4], the target named is T1, aggregated Aβ (1-42) peptides. Briefly: Estimation of binding constant (KD) to aggregated Aβ (1-42) peptides. The following applies: aggregated Aβ(1-42) 5 μM, increasing concentration of probe, 5% DMSO in nanopure water. The procedure:
as §1
Estimation of Binding Constant (KD) to aggregated Aβ (1-42) peptides. Aggregated Aβ(1-42) at a final concentration of 5 μM (based on the molecular weight of monomer) was mixed with increasing concentration of each probe in 5% DMSO in nanopure water. KD's were determined as previously described.^21
as §3, §7

For data set [5], the target named is T2, aggregated αS. Put plainly: Fluorescence emission and fluorescence enhancement of probes bound versus unbound to aggregated αS. Format: binding. The following applies: probes of FIG. 14. The procedure: as §5, §6, §4
Data set [6] in a line: Fluorescence excitation and emission spectra of free (unbound) probes in aqueous solution. Particulars: for Em (λmax) (Free) / Ex (λmax) (Free): free probe in aqueous solution; for fluorescence intensity of the free probe in aqueous solution compared to ARCAM (1): free probes in aqueous solution, FIG. 2. Format: physicochemical. The procedure:
as §2, §4

For data set [7] the following is noted: in Acetonitrile; cited from earlier work.

In data set [1], `Cc1ccc2c(c1)sc(-c1ccc(N(C)C)cc1)[n+]2C.[Cl-]` [ThT, Thioflavin T, reference compound] displayed a QY of 0.0006.
Take `CCCC1CCCCN1c1ccc2cc(/C=C(\C#N)C(=O)NCCOCCOCCOC)ccc2c1` (stereo not drawn) [Probe 4, (E)-2-cyano-N-(2-(2-(2-methoxyethoxy)ethoxy)ethyl)-3-(6-(2-propylpiperidin-1-yl)naphthalen-2-yl)acrylamide]: in data set [2] (probes of FIG. 14, aggregated Aβ(1-42) 5 μM, 5% DMSO in nanopure water), the “Emmax (with Aβ)” value stood at 558 nm. Moreover, in data set [2] (probes of FIG. 14, fold increase of fluorescence, bound vs unbound, aggregated Aβ(1-42) 5 μM), the “FI with Aβ” value is on record as 1.8 ± 0.2. Moreover, the Kd was 0.5 ± 0.1 µM in data set [3] and 4 ± 2.7 µM in data set [4] (probes of FIG. 14). In data set [1] (probes of FIG. 14), the “Quantum Yield (Φ)” value was determined as 0.0062. The “Emmax (with αS)” value in data set [5] (aggregated αS 5 μM, probe 4 μM, 5% DMSO in nanopure water) amounted to 539 nm. In addition, in data set [5] (fold increase of fluorescence, bound vs unbound, aggregated αS 5 μM, probe 4 μM), the “FI with αS” value is on record as 5.2 ± 0.8. Besides, in data set [5] (selectivity of fluorescence response to αS fibrils over Aβ fibrils), the “FI αS/Aβ” value worked out at 2.9. For the same molecule, in data set [6] (probes of FIG. 14, free), the “Emmax (Free)” value turned out to be 578 nm.
As to `COCCOCCOCCNC(=O)/C(C#N)=C(\C)c1ccc2cc(N3CCCCC3)ccc2c1` [Compound 2, (E)-2-cyano-N-(2-(2-(2-methoxyethoxy)ethoxy)ethyl)-3-(6-(piperidin-1-yl)naphthalen-2-yl)but-2-enamide], in data set [2] (5% DMSO in nanopure water), the “Em (λmax) (with Aβ)” value came to 547 ± 4 nm; the “Ex (λmax) (with Aβ)” value came to 364 ± 6 nm; the “Fold Increase with Aβ” value is 3.5 fold and 3.5 ± 0.9 fold. In addition, the QY in data set [1] worked out at 0.0016 ± 0.0005. In data set [4], the Kd was 5 ± 1.7 µM. Moreover, in data set [6], the “Em (λmax) (Free)” value came to 601 ± 2 nm, the “Ex (λmax) (Free)” value came out at 372 ± 14 nm and the “fluorescence intensity of the free probe in aqueous solution compared to ARCAM (1)” value is given as “decreased in fluorescence intensity by two orders of magnitude”.
For the molecule `CCN(CC)c1ccc2cc(-c3nc4ccccc4n3C)c(=O)oc2c1` [Coumarin 30], in data set [7], the “quantum yield of the reference standard” value was 0.67.
In the case of `COCCOCCOCCNC(=O)C(C#N)=C(c1ccc2cc(N3CCCCC3)ccc2c1)C(F)(F)F` (mixture of isomers) [Compound 3, (Z)-2-cyano-4,4,4-trifluoro-N-(2-(2-(2-methoxyethoxy)ethoxy)ethyl)-3-(6-(piperidin-1-yl)naphthalen-2-yl)but-2-enamide], in data set [2] (5% DMSO in nanopure water), the “Em (λmax) (with Aβ)” value stood at 514 ± 6 nm; the “Ex (λmax) (with Aβ)” value came to 410 ± 5 nm; the “Fold Increase with Aβ” value was 5.4 fold and 5.4 ± 0.9 fold. Moreover, the QY in data set [1] is given as 0.0012 ± 0.0004. In addition, in data set [4], the Kd was 3.7 ± 1.1 µM. In addition, in data set [6], the “Em (λmax) (Free)” value is 547 ± 5 nm, the “Ex (λmax) (Free)” value is listed as 419 ± 4 nm and the “fluorescence intensity of the free probe in aqueous solution compared to ARCAM (1)” value is given as “decreased in fluorescence intensity by two orders of magnitude”.
